From US5026554A, “Method of inhibiting fungal growth using squalene synthetase inhibitors” (Merck & Co., Inc., priority 1990, dated 1991) come the findings set out here.

Assay [1] has as its target T1, Squalene Synthetase (Rattus norvegicus, UniProt Q02769).
T1 construct: from tissue; host or cells: liver microsomes of male Charles River CD rats fed 0.1% lovastatin
T1 sequence (Q02769 1-416): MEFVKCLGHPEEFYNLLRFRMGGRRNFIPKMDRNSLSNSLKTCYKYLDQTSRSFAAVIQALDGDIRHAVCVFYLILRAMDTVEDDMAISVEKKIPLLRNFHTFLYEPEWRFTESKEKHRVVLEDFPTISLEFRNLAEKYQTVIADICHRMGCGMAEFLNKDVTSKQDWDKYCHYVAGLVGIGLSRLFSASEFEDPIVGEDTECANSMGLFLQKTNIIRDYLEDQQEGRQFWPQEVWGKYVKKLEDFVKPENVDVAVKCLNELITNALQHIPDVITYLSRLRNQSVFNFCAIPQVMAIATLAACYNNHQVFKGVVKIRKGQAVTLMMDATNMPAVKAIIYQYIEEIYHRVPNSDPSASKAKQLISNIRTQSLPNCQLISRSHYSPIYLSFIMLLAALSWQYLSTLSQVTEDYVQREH
Put plainly: Squalene Synthetase Assay (intrinsic squalene synthetase inhibitory activity). The format is biochemical. The following applies: rat liver microsomes, [4-14C]farnesyl-pyrophosphate, 30° C., 20 minutes. As to the method:
The intrinsic squalene synthetase inhibitory activity of representative compounds of this invention was measured by the standard in vitro protocol described below:
Male, Charles River CD rats (120 to 150 g) were fed a diet containing 0.1% lovastatin for 4 days. The livers from these rats were homogenized in 5 volumes (ml/g) of ice cold 50 mM HEPES (4-(2-hydroxyethyl)-1-piperazine-ethanesulfonic acid), 5 mM EDTA(ethylenediaminetetraacetic acid) pH 7.5 with a Potter-Elvehjem type tissue grinder. The homogenate was centrifuged twice at 20,000×g for 15 minutes at 4° C., discarding the pellet each time. The supernatant was then centrifuged at 100,000×g for 1 hour at 4° C. The resulting microsomal pellet was resuspended in a volume of the above homogenizing buffer equal to one-fifth the volume of the original homogenate. This microsomal preparation has a protein concentration of about 7 mg/ml. The microsomal suspensions were stored in aliquots at -70° C. Squalene synthetase activity in these aliquots is stable for at least several months.
Prenyl transferase was purified to use in the enzymatic synthesis of radiolabelled farnesyl pyrophosphate. Prenyl transferase was assayed by the method of Rilling (Methods in Enzymology 110, 125-129 (1985)) and a unit of activity is defined as the amount of enzyme that will produce 1 μ mole of farnesyl pyrophosphate per minute at 30° C. in the standard assay. […]
On the technique in general: Liver microsomes are vesicles of endoplasmic reticulum, rich in cytochrome P450 enzymes.

Assay [2] concerns Crypt. neoformans MY1051. Put plainly: antifungal MIC, microtiter dilution assay, yeast. The format is cell-based. As to conditions: Cryptococcus neoformans, YNB/G, 24 to 48 hours, 35° C., read-out: Minimum Inhibitory Concentration. Here is the method:
(§1) The compounds are particularly active towards filamentous fungi and yeasts including Candida albicans and Cryptococcus neoformans. The sensitivity of filamentous fungi and yeast was determined using inhibitor dilution assays in microtiter format. The compounds were dissolved in DMSO at 2 mg/ml and serially diluted in 0.1M phosphate buffer, pH 7.0 in the microtiter dish from 100 to 0.006 μg/ml. A standardized spore suspension for testing the filamentous fungi was prepared by inoculating Antibiotic Medium #3 containing 1.5% agar with spores such that 1.5×10^3 colony forming units were added per well. The microtiter wells were filled with 50 μl of buffer containing compound and 50 μl of inoculated medium.
(§2) The sensitivity of yeasts was determined by inoculating yeast nitrogen base containing 1% dextrose (YNB/G) with aliquots of an overnight yeast culture grown in Yeast Morphology (YM) media at 35° C. and diluting in YNB/G to yield a final concentration of 1.5-7.5×10^3 colony forming units/well. To test the sensitivity of yeast, compound was solubilized in 10 percent aqueous DMSO at 2.56 mg/ml. The compound was diluted serially in YNB/G from 128 to 0.06 μg/ml and further diluted 1:10 in YNB/G. The wells were filled with 150 μl of media containing drug. The minimum inhibitory concentration (MIC) is defined as the lowest concentration to prevent growth after an incubation for 42 hours, at 28° C. for the filamentous fungi and 24 to 48 hours, at 35° C. for the yeasts. Representative of the antifungal activity are the minimum inhibitory concentration data shown below.

In assay [3] the test system is Candida albicans MY1055. In words: antifungal MIC, microtiter dilution assay, yeast. The following applies: YNB/G, 24 to 48 hours, 35° C., read-out: Minimum Inhibitory Concentration. The format is cell-based. Here is the method:
as §1, §2

Assay [4] deals with C. tropicalis MY1012. Put plainly: antifungal MIC, microtiter dilution assay, yeast. The format is cell-based. As to conditions: Candida tropicalis, YNB/G, 24 to 48 hours, 35° C., read-out: Minimum Inhibitory Concentration. As to the method: as §1, §2
Assay [5] deals with C. parapsilosis MY1010. Put plainly: antifungal MIC, microtiter dilution assay, yeast. The format is cell-based. The following applies: Lodderomyces parapsilosis, YNB/G, 24 to 48 hours, 35° C., read-out: Minimum Inhibitory Concentration. Here is the method:
as §1, §2

The subject of assay [6] is Aspergillus flavus MF383. In words: antifungal MIC, microtiter dilution assay, filamentous fungi. The class given is cell-based. The following applies: 42 hours, 28° C., read-out: Minimum Inhibitory Concentration. Here is the method: as §1
(§3) The sensitivity of yeasts was determined by inoculating yeast nitrogen base containing 1% dextrose (YNB/G) with aliquots of an overnight yeast culture grown in Yeast Morphology (YM) media at 35° C. and diluting in YNB/G to yield a final concentration of 1.5-7.5×10^3 colony forming units/well. To test the sensitivity of yeast, compound was solubilized in 10 percent aqueous DMSO at 2.56 mg/ml. The compound was diluted serially in YNB/G from 128 to 0.06 μg/ml and further diluted 1:10 in YNB/G. The wells were filled with 150 μl of media containing drug. […]

The subject of assay [7] is A. nidulans R21. Described as above. The class given is cell-based. As to conditions: Aspergillus nidulans, 42 hours, 28° C., read-out: Minimum Inhibitory Concentration. Here is the method: as §1, §3

In brackets after ≈: the same amount, converted by molar mass.

A word on the IC50: it is the concentration at which inhibition is half-maximal. The molecule `CC(=O)OC(CCCC12OC(C(=O)O)C(O)(C(=O)O)C(C(=O)O)(O1)C(OC(=O)CCC=CC(C)CCCc1ccccc1)C2O)C(C)Cc1ccccc1` (stereo not shown) [Compound A] showed an IC50 in assay [1] of 9 nM. Also, the MIC in assay [2] is 1 µg/mL (≈ 1.32 µM); in assay [3], 16 µg/mL (≈ 21.2 µM); in assay [4], 8 µg/mL (≈ 10.6 µM); in assay [5], 8 µg/mL (≈ 10.6 µM); in assay [6], 1.5 µg/mL (≈ 1.99 µM); in assay [7], 1.5 µg/mL (≈ 1.99 µM).
